One test concerns tsFT210 cells. Nature of the test: Flow cytometry, G1 transition in tsFT210 cells. The format is cell-based, mouse. To be noted: 5 or 10 μM, additional 6 hours. For orientation: A flow cytometer gives signals particle by particle.
A further test relates to bovine brain tubulin. In words: GTP-induced tubulin assembly (turbidity). The class given is biochemical. To be noted: 40 μM. Here is the method:
Tubulin without microtubule-associated proteins was isolated from fresh bovine brains (Hamel E and Lin CM (1984). Separation of active tubulin and microtubule-associated proteins by ultracentrifugation and isolation of a component causing the formation of microtubule bundles. Biochemistry 23:4173-4184). Inhibition of assembly reactions was carried out as described previously (Verdier-Pinard P, Lai J-Y, Yoo H-D, Yu J, Marquez B, Nagle DG, Nambu M, White JD, Falck JR, Gerwick WH, Day BW and Hamel E (1998) Structure-activity analysis of the interaction of curacin A, the potent colchicine site antimitotic agent, with tubulin and effects of analogs on the growth of MCF-7 breast cancer cells. Mol Pharmacol 53:62-76.).
(§1) The inventors examined the ability of SR-7 to alter tubulin polymerization or depolymerization in vitro. FIG. 28, Panel A. Compounds (predissolved in DMSO) were preincubated with tubulin containing monosodium glutamate at 30 ° C. for 15 min. Samples were cooled to 0 ° C. and GTP was added. Samples were placed in a temperature-controlled multi-cuvette holder of a spectrophotometer held at 0 ° C. Baselines were established and temperature was rapidly raised to 30 ° C. Turbidity development in the cuvettes was measured at 350 nm. FIG. 28, Panel B. Compounds were added to the tubulin plus monosodium glutamate mixture at 0 ° C., placed in the spectrophotometer and temperature was raised to 30 ° C. Addition of 0.4 mM GTP to isolated bovine brain tubulin produced robust polymerization that began to plateau approximately 20 min after microtubule assembly commenced (Panel A).

A further test addresses T1, PTPIB (Homo sapiens, UniProt P18031).
T1 sequence (P18031 1-435): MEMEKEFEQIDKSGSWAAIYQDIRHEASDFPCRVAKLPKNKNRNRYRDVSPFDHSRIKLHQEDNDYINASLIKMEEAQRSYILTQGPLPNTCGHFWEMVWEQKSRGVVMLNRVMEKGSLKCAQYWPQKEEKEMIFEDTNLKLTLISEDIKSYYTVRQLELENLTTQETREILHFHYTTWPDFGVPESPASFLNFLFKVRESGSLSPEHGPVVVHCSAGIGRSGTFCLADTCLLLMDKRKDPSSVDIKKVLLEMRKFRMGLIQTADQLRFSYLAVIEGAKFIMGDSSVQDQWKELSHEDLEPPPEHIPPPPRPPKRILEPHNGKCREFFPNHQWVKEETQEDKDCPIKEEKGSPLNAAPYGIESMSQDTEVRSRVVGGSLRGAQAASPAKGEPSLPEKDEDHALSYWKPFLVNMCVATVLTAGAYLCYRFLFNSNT
Nature of the test: In vitro inhibition of PTPIB. The class given is biochemical. The conditions noted are these: 30 μM, data not shown.

A further test has as its system bovine tubulin. Nature of the test: Tubulin hypernucleation without GTP. The format is biochemical. To be noted: in vitro. The procedure: as §1
The next test has as its target VHR (Homo sapiens, UniProt P51452). In words: In vitro inhibition of VHR. The class given is biochemical. To be noted: 30 μM, data not shown.
A further test has as its system Cdk1. In words: Western blotting for Cdk1 phosphorylation status in tsFT210 cells. The format is cell-based, mouse. The conditions noted are these: 10 or 20 μM, 6 hours. Here is the method: tsFT210 cells were harvested using the same procedure for cell synchronizing and drug exposure as described above for the G2/M flow cytometric analysis. The protein lysates were analyzed by Western blotting for Cdk1 as described previously (Tamura K, Southwick EC, Kerns J, Rosi K, Carr BI, Wilcox C and Lazo JS (2000) Cdc25 inhibition and cell cycle arrest by a synthetic thioalkyl vitamin K analogue. Cancer Res 60:1317-1325.). The inventors used Cdk1 isolated from human MCF-7 cells to assay for in vitro inhibition of enzyme activity because of available antibodies and convenience. Asynchronous cells grown at 37° C. in 5% CO2 in DMEM containing 10% fetal bovine serum were treated with lysis buffer and harvested as previously described (Vogt A, Wang AS, Johnson CS, Fabisiak JP, Wipf P and Lazo JS (2000) In vivo antitumor activity and induction of insulin-like growth factor-1 resistant apoptosis by SC-ααδ9. J Pharmacol Exptl Therap 292:530-537.). Cdk1 kinase activity assay was performed as previously described (Yu L, Orlandi L, Wang P, Orr MS, Senderowicz AM, Sausville EA, Silvestrini R, Watanabe N, Piwnica-Worms H, O° Connor PM (1998) UCN-01 arogates G2 arrest through a Cdc2-dependent pathway that is associated with inactivation of the WeelHu kinase and activation of the Cdc25C phosphatase. J Biol Chem 273: 33455-33464.). […] Histone H1 was separated from other proteins by SDS-PAGE and analyzed for incorporation of radioactive phosphate with a Molecular Dynamics STORM 860 Phospholmager (Sunnyvale, CA).
The major controlling molecule for G2/M transition is the cyclin dependent kinase, Cdk1, whose cellular activity is tightly regulated by phosphorylation (Pines J (1999) Four-dimensional control of the cell cycle. Nature Cell Biol 1:E73-79., Hunter T and Pines J (1994) Cyclins and cancer II: cyclin D and CDK inhibitors come of age. Cell 79:573-582). […] The protein lysates were analyzed by Western blotting for Cdk1 content and phosphorylation status as described elsewhere herein. […]

Chain of VHR (P51452 whole entry, species assumed): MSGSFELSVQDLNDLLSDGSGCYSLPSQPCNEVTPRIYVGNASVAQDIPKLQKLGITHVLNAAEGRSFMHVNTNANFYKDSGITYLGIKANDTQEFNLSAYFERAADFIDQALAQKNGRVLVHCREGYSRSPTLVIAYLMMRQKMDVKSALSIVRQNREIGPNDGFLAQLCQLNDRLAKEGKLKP

`O=C1C=CC2(Oc3cccc4cccc(c34)O2)c2cccc(OCc3ccco3)c21` [SR-7, 8-(furan-2-ylmethoxy)-1-oxo-1,4-dihydronaphthalene-4-spiro-2′-naphto [1″,8″-de][1′,3′] dioxin]: in the test with tsFT210 cells, the G1 transition entry is “not delayed at G1”. In addition, the “inhibition of tubulin assembly” value with bovine brain tubulin was “only moderate inhibition of tubulin assembly”. In addition, the “inhibition of PTPIB activity” value against PTPIB is listed as “no inhibition”. Also, in the test on bovine tubulin, the hypernucleation of tubulin entry is reported as “failed in vitro to hypernucleate bovine tubulin”. The “inhibition of VHR activity” value on VHR was “no inhibition”. Further, the Cdk1 phosphorylation status entry in the test with Cdk1 is “Cdk1 was completely dephosphorylated”.

These data come from patent publication US6673937B2, “Syntheses and methods of use of new antimitotic agents” (The University of Pittsburgh, priority 2000, dated 2004).
